Results reported in patent publication US10800752B2, “Substituted naphtho[2,3-b]furans as water-soluble prodrugs for preventing and/or treating cancer” (BOSTON BIOMEDICAL, INC., priority 2015, dated 2020).
Structures can show the parent of a compound that is named as a salt.

What was measured:
Solubility test = details: for solubility at 24 hours: pH 2, aqueous buffer, thermodynamic from solid; for solubility (in words): pH 2.0 buffer solution
[1] = Evaluation of a conversion rate to 2-acetylnaphtho[2,3-b]furan-4,9-dione in pH 7.4 phosphate buffer solution; format: physicochemical
Protocol: For test compounds, the decrease rate of the test compounds and the conversion rate thereof to 2-acetylnaphtho[2,3-b]furan-4,9-dione in human plasma, CD1 mouse plasma, and pH 7.4 phosphate buffer solution were measured.
Test compounds were incubated at the concentration of 1 umol/L in human plasma (cat. no. 12250210, COSMO BIO), CD1 mouse plasma (cat. no. AP3054, KAC), and phosphate buffer solution at 37° C., and removed at predetermined times (0, 5, 10, 30, 60, and 120 minutes). After protein-removing treatment was performed, they are analyzed with LC-MS. It should be noted that the protein-removing treatment used acetonitrile containing: 10% volume of 1 mol/L hydrochloric acid; 1% volume of 46% citric acid; and phenytoin as an internal standard.
The measurement condition of LC-MS is as described below. LC-MS condition column: Kinetex 2.6 u PFP 100 A 50×2.1 mm Column temperature: 40° C.
Mobile phase: A: 0.1% formic acid-containing water
• B: 0.1% formic acid-containing acetonitrile A/B(min): 95/5(0)→5/95(3)→5/95(4)→95/5(4.1)→95/5(6) Flow rate: 0.4 mL/min Detection: ESI (positive mode) Injection volume: 10 uL
Measurement values are calculated from the peak area ratio in LC-MS between an internal standard material, phenytoin and an active form, 2-acetylnaphtho[2,3-b]furan-4,9-dione, and are expressed in %.
In the same way as Example 6, the incubation time was set as 120 minutes later, and the conversion rate of each of various test compounds to 2-acetylnaphtho[2,3-b]furan-4,9-dione in human plasma, CD1 mouse plasma, and pH 7.4 phosphate buffer solution was measured. A series of the present compounds were confirmed to be converted to 2-acetylnaphtho[2,3-b]furan-4,9-dione in pH 7.4 phosphate buffer solution in addition to human plasma and CD1 mouse plasma. Therefore, a series of the test compounds of the present invention were confirmed to be converted to the activated form via a route other than an enzymatic conversion.

[2] = Phosphate buffer solution (pH 7.4), 1 umol/L, 37° C., incubation time 120 min
[3] = Phosphate buffer solution (pH 7.4), 1 umol/L, 37° C., incubation time 120 min, dimethanesulfonate salt monohydrate
[4] = Phosphate buffer solution (pH 7.4), 1 umol/L, 37° C., incubation time 120 min, monohydrate
[5] = Phosphate buffer solution (pH 7.4), 1 umol/L, 37° C., incubation time 120 min, monosulfate salt monohydrate
[6] = Phosphate buffer solution (pH 7.4), 1 umol/L, 37° C., incubation time 120 min, trifluoroacetate salt monohydrate

With `CC(=O)c1cc2c(OC(=O)C(C)(C)C)c3ccccc3c(OC(=O)C(C)(C)C)c2o1` [2-acetylnaphtho[2,3-b]furan-4,9-diyl bis(2,2-dimethylpropanoate), reference compound] the solubility at 24 hours (Solubility test; glycine buffer solution) was less than 0.1 µg/mL and the “solubility (in words)” value (Solubility test) was “very low solubility”.
In the case of `CCCCCCCC(=O)Oc1c2ccccc2c(OC(=O)CCCCCCC)c2oc(C(C)=O)cc12` [2-acetylnaphtho[2,3-b]furan-4,9-diyl dioctanoate, reference compound], the solubility at 24 hours (Solubility test; glycine buffer solution) is reported as less than 0.1 µg/mL and the “solubility (in words)” value (Solubility test) is reported as “very low solubility”.
In the case of `CC(=O)c1cc2c(OC(=O)NCCCN)c3ccccc3c(OC(=O)NCCCN)c2o1` [Example 1, 2-Acetylnaphtho[2,3-b]furan-4,9-diyl bis((3-aminopropyl)carbamate)dihydrochloride], the “% Measurement value (conversion rate to 2-acetylnaphtho[2,3-b]furan-4,9-dione)” value (“% Measurement value” below) [1, 2] is reported as 79%.
With `CC(=O)c1cc2c(OC(=O)NCCN)c3ccccc3c(OC(=O)NCCN)c2o1` [Example 2, 2-Acetylnaphtho[2,3-b]furan-4,9-diyl bis((2-aminoethyl)carbamate)dihydrochloride] the “% Measurement value” value [1, 2] was 59%.
In the case of `CN[C@@H](CCNC(=O)Oc1c2ccccc2c(OC(=O)NCC[C@@H](NC)C(=O)O)c2cc(C(C)=O)oc12)C(=O)O` [Example 3, (S)-4-((((2-Acetyl-4-((((R)-3-carboxy-3-(methylamino)propyl)carbamoyl)oxy)naphtho[2,3-b]furan-9-yl)oxy)carbonyl)amino)-2-(methylamino)butanoic acid dihydrochloride], the “% Measurement value” value [1, 2] is reported as 40%.
For `CC(=O)c1cc2c(OC(=O)NCCCN)c3ccccc3c(O)c2o1.Cl` [Example 15, 2-Acetyl-9-hydroxynaphtho[2,3-b]furan-4-yl (3-aminopropyl)carbamate hydrochloride], the “% Measurement value” value [1, 2] was 100%.
In the case of `CC(=O)c1cc2c(OC(=O)NCCNCCC(=O)O)c3ccccc3c(O)c2o1` [Example 17, 3-((2-((((2-Acetyl-9-hydroxynaphtho[2,3-b]furan-4-yl)oxy)carbonyl)amino)ethyl)amino)prop ionic acid hydrochloride], the “% Measurement value” value [1, 2] is reported as 80%.
In the case of `CC(=O)c1cc2c(O)c3ccccc3c(OC(=O)NCCCN)c2o1.Cl` [Example 20, 2-Acetyl-4-hydroxynaphtho[2,3-b]furan-9-yl (3-aminopropyl)carbamate hydrochloride], the “% Measurement value” value [1, 2] is reported as 57%.
In the case of `CC(=O)c1cc2c(OC(=O)NCCNCC(F)F)c3ccccc3c(OC(=O)NCCNCC(F)F)c2o1.Cl.Cl` [Example 44], the “% Measurement value” value ([1]; pH 7.4) is reported as 48%.
For `CC(=O)c1cc2c(OC(=O)NCCNCC(=O)O)c3ccccc3c(OC(=O)NCCNCC(=O)O)c2o1` [Example 93, 2,2′-((((((2-acetylnaphtho[2,3-b]furan-4,9-diyl)bis(oxy))bis(carbonyl))bis(azanediyl))bis(ethane-2,1-diyl))bis(azanediyl))diacetic acid monohydrochloride dihydrate], the “% Measurement value” value ([1]; Phosphate buffer solution (pH 7.4), 1 umol/L, 37° C., incubation time 120 min, monohydrochloride dihydrate) was 72%.
In the case of `CC(=O)c1cc2c(OC(=O)NCCNCC(=O)O)c3ccccc3c(OC(=O)NCCNCC(=O)O)c2o1` [Example 94, 2,2′-((((((2-acetylnaphtho[2,3-b]furan-4,9-diyl)bis(oxy))bis(carbonyl))bis-(azanediyl))bis(ethane-2,1-diyl))bis(azanediyl))diacetic acid dimethanesulfonate salt monohydrate], the “% Measurement value” value [1, 3] is reported as 53%.
For `CC(=O)c1cc2c(OC(=O)NCCNCC(=O)O)c3ccccc3c(OC(=O)NCCNCC(=O)O)c2o1` [Example 95, 2,2′-((((((2-acetylnaphtho[2,3-b]furan-4,9-diyl)bis(oxy))bis(carbonyl))bis(azanediyl))bis(ethane-2,1-diyl))bis(azanediyl))diacetic acid ditoluenesulfonate salt monohydrate], the “% Measurement value” value [1, 4] was 54%.
With `CC(=O)c1cc2c(OC(=O)NCCNCC(=O)O)c3ccccc3c(OC(=O)NCCNCC(=O)O)c2o1` [Example 97, 2,2′-((((((2-acetylnaphtho[2,3-b]furan-4,9-diyl)bis(oxy))bis(carbonyl))bis-(azanediyl))bis(ethane-2,1-diyl))bis(azanediyl))diacetic acid monosulfate salt monohydrate] the “% Measurement value” value [1, 5] was 61%.
With `CC(=O)c1cc2c(OC(=O)NCCNCC(=O)O)c3ccccc3c(OC(=O)NCCNCC(=O)O)c2o1` [Example 98, 2,2′-((((((2-acetylnaphtho[2,3-b]furan-4,9-diyl)bis(oxy))bis(carbonyl))bis(azanediyl))bis(ethane-2,1-diyl))bis(azanediyl))diacetic acid 1/3 trifluoroacetate salt monohydrate] the solubility at 24 hours (Solubility test) was greater than 5000 µg/mL and the “% Measurement value” value [1, 6] was 66%.
For `CC(=O)c1cc2c(OC(=O)NCCNCCC(=O)O)c3ccccc3c(OC(=O)NCCNCCC(=O)O)c2o1` [Example 99, 3,3′-((((((2-acetylnaphtho[2,3-b]furan-4,9-diyl)bis(oxy))bis(carbonyl))bis(azanediyl))bis(ethane-2,1-diyl))bis(azanediyl))dipropionic acid dimethanesulfonate salt monohydrate], the “% Measurement value” value [1, 3] was 60%.
With `CC(=O)c1cc2c(OC(=O)NCCNCCC(=O)O)c3ccccc3c(OC(=O)NCCNCCC(=O)O)c2o1` [Example 100, 3,3′-((((((2-acetylnaphtho[2,3-b]furan-4,9-diyl)bis(oxy))bis(carbonyl))bis(azanediyl))bis(ethane-2,1-diyl))bis(azanediyl))dipropionic acid ditoluenesulfonate salt monohydrate] the “% Measurement value” value [1, 4] was 76%.
For `CC(=O)c1cc2c(OC(=O)NCCNCCC(=O)O)c3ccccc3c(OC(=O)NCCNCCC(=O)O)c2o1` [Example 101, 3,3′-((((((2-acetylnaphtho[2,3-b]furan-4,9-diyl)bis(oxy))bis(carbonyl))bis(azanediyl))bis(ethane-2,1-diyl))bis(azanediyl))dipropionic acid dibenzenesulfonate salt], the “% Measurement value” value ([1]; Phosphate buffer solution (pH 7.4), 1 umol/L, 37° C., incubation time 120 min, dibenzenesulfonate salt) was 56%.
With `CC(=O)c1cc2c(OC(=O)NCCNCCC(=O)O)c3ccccc3c(OC(=O)NCCNCCC(=O)O)c2o1` [Example 102, 3,3′-((((((2-acetylnaphtho[2,3-b]furan-4,9-diyl)bis(oxy))bis(carbonyl))bis-(azanediyl))bis(ethane-2,1-diyl))bis(azanediyl))dipropionic acid monosulfate salt monohydrate] the “% Measurement value” value [1, 5] was 59%.
In the case of `CC(=O)c1cc2c(OC(=O)NCCNCCC(=O)O)c3ccccc3c(OC(=O)NCCNCCC(=O)O)c2o1` [Example 103, 3,3′-((((((2-acetylnaphtho[2,3-b]furan-4,9-diyl)bis(oxy))bis(carbonyl))bis(azanediyl))bis(ethane-2,1-diyl))bis(azanediyl))dipropionic acid 1/3 trifluoroacetate salt monohydrate], the “% Measurement value” value [1, 6] is reported as 53%.
In the case of `COC(=O)[C@@H](N)CCNC(=O)Oc1c2ccccc2c(OC(=O)NCC[C@H](N)C(=O)OC)c2oc(C(C)=O)cc12` [Example 107, Dimethyl 4,4′-((((2-acetylnaphtho[2,3-b]furan-4,9-diyl)bis(oxy))bis(carbonyl))bis(azanediyl))(2S,2′S)-bis(2-aminobutanoate) monosulfate salt monohydrate], the “% Measurement value” value [1, 5] is reported as 50%.
